Measurements reported in ChEMBL document CHEMBL1122335, “Synthesis of an N-aminopyrazinonium analogue of cytidine” (J Med Chem, 1983).

Tests used:
L1210 [1] = assay: Growth inhibition of L1210 cells in culture in the first 48 hours of exposure at a concentration of 5 x 10e-5 M; format: functional; details: Mus musculus, L1210, 48 h
[2] = Ionization constant of the compound; format: physicochemical
L1210 [3] = assay: Growth inhibition of L1210 cells in culture in the first 48 hours of exposure at a concentration of 1 x 10e-5 M; format: functional; details: Mus musculus, L1210, 48 h
L1210 [4] = assay: Growth inhibition of L1210 cells in culture in the first 48 hours of exposure at a concentration of 5 x 10e-6 M; format: functional; details: Mus musculus, L1210, 48 h

- pKa [2]: 8.8
SMILES: Nn1ccn([C@@H]2O[C@H](CO)[C@@H](O)[C@H]2O)c(=O)c1=O
- inhibition at 50 µM (L1210 [1]): 25%
- inhibition at 10 µM (L1210 [3]): 20%
- inhibition at 5 µM (L1210 [4]): 15%
